In patent US9199946B2, “Pyrimidinone carboxamide inhibitors of endothelial lipase” (BRISTOL-MYERS SQUIBB COMPANY, priority 2012, dated 2015):
Read-outs that look alike come from different tables or passages of the source.

Molecular target: T1, Endothelial lipase (EL) (Homo sapiens, UniProt Q9Y5X9)
T1 construct: HT-1080 cells, which were transformed by RAGE technology (Athersys) to overexpress endogenous EL; endogenous in cells; conditioned medium used as the enzyme source
T1 sequence (Q9Y5X9 21-500): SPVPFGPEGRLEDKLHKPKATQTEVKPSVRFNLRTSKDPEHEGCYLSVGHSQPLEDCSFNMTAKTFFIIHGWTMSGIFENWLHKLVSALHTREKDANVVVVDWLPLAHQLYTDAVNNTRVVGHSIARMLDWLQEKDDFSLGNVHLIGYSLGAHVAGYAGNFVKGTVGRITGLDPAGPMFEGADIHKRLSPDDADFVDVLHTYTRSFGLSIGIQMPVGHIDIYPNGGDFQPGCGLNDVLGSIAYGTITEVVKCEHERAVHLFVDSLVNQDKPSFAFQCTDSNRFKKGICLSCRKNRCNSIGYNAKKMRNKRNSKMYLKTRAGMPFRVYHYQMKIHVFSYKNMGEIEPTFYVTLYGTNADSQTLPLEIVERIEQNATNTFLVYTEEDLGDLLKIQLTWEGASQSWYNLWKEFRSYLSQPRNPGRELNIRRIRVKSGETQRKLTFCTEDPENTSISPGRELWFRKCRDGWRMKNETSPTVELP
Assay: Endothelial lipase (EL) enzymatic assay with fluorescent substrate A10070 in DMPG vesicles
Assay type: biochemical
Procedure, shortened: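 The enzyme source was conditioned medium from HT-1080 cells engineered to overexpress endogenous EL. It was preincubated with compound for 20 min at 37 °C in 50 mM HEPES pH 8.0, 50 mM NaCl, 1 mM CaCl2. Reactions started with DMPG vesicles carrying FRET substrate A10070 (mole fraction 0.05). The rate was taken from the linear slope of fluorescence (ex 488/em 530 nm) over 10 min.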

[1] = range observed in the EL assay, read-out: EL IC50 values
[2] = conditioned media from HT-1080 cells overexpressing endogenous EL, 20 min preincubation at 37° C., read-out: EL IC50

| SMILES | IC50 [1] [µM] | IC50 [2] [µM] |
| --- | --- | --- |
| O=C(N[C@H]1CCC[C@H](c2ccccc2)C1)c1[nH]c(=O)[nH]c(=O)c1O [Example 277, 5-hydroxy-2,6-dioxo-N-((1S,3S)-3-phenylcyclohcxyl)-1,2,3,6-tetrahydropyrimidine-4-carboxamide] | ≤ 10 | – |
| Nc1c(C(=O)N[C@@H]2CC[C@@H](c3ccccc3)C2)[nH]c(=O)[nH]c1=O [Example 77, 5-amino-2,6-dioxo-N-((1R,3R)-3-phenylcyclopentyl)-1,2,3,6-tetrahydropyrimidine-4-carboxamide] | ≤ 10 | – |
| Nc1c(C(=O)N[C@H]2CCc3ccc(OCc4ccccc4)cc32)[nH]c(=O)[nH]c1=O [Example 90, (S)-5-amino-N-(6-(benzyloxy)-2,3-dihydro-1H-inden-1-yl)-2,6-dioxo-1,2,3,6-tetrahydropyrimidine-4-carboxamide] | ≤ 10 | – |
| O=C(N[C@@H]1CCCc2c(OCc3ccccc3)cccc21)c1[nH]c(=O)[nH]c(=O)c1O [Example 258, (R)-N-(5-(benzyloxy)-1,2,3,4-tetrahydronaphthalen-1-yl)-5-hydroxy-2,6-dioxo-1,2,3,6-tetrahydropyrimidine-4-carboxamide] | ≤ 10 | 0.01 |
| CC(C)(O)CNc1c(C(=O)N[C@H]2CC[C@@H](c3ccccc3)CC2)[nH]c(=O)[nH]c1=O [Example 234, 5-(2-hydroxy-2-methylpropylamino)-2,6-dioxo-N-(cis-4-phenylcyclohexyl)-1,2,3,6-tetrahydropyrimidine-4-carboxamide] | ≤ 10 | 0.439 |
| COC(=O)C1CCCCC1NC(=O)c1[nH]c(=O)[nH]c(=O)c1N (centres unmarked) [Example 56, methyl 2-(5-amino-2,6-dioxo-1,2,3,6-tetrahydropyrimidine-4-carboxamido) cyclohexanecarboxylate] | ≤ 10 | – |
| Nc1c(C(=O)N[C@H]2CC[C@@H](c3ccc(Cl)c(Cl)c3)C2)[nH]c(=O)[nH]c1=O [Example 67, 5-amino-N-((1S,3R)-3-(3,4-dichlorophenyl)cyclopentyl)-2,6-dioxo-1,2,3,6-tetrahydropyrimidine-4-carboxamide] | ≤ 10 | – |
| COc1cc(C)c(OC)c2c1CC(NC(=O)c1[nH]c(=O)[nH]c(=O)c1N)CC2 (centres unmarked) [Example 109, 5-amino-N-(5,8-dimethoxy-6-methyl-1,2,3,4-tetrahydronaphthalen-2-yl)-2,6-dioxo-1,2,3,6-tetrahydropyrimidine-4-carboxamide] | ≤ 10 | – |
| O=C(N[C@H]1CC[C@@H](c2ccccc2)CC1)c1[nH]c(=O)n(CCO)c(=O)c1O [Example 269, 5-Hydroxy-1-(2-hydroxyethyl)-2,6-dioxo-N-(cis-4-phenylcyclohexyl)-1,2,3,6-tetrahydropyrimidine-4-carboxamide] | ≤ 10 | – |
| O=C(NC1CCC(c2cccc(OCc3ccccc3)c2)C1)c1[nH]c(=O)[nH]c(=O)c1O (centres unmarked) [Example 282, N-(3-(3-(benzyloxy)phenyl)cyclopentyl)-5-hydroxy-2,6-dioxo-1,2,3,6-tetrahydropyrimidine-4-carboxamide] | ≤ 10 | – |
| Nc1c(C(=O)NC2CCC(c3nc4ccc(-c5ccccc5)cc4s3)C2)[nH]c(=O)[nH]c1=O (centres unmarked) [Example 144, 5-amino-2,6-dioxo-N-(3-(6-phenylbenzo[d]thiazol-2-yl)cyclopentyl)-1,2,3,6-tetrahydropyrimidine-4-carboxamide] | ≤ 10 | – |
| CC(CO)Nc1c(C(=O)N[C@H]2CC[C@@H](c3ccccc3)CC2)[nH]c(=O)[nH]c1=O (stereo partly drawn) [Example 235, 5-(1-hydroxypropan-2-ylamino)-2,6-dioxo-N-(cis-4-phenylcyclohexyl)-1,2,3,6-tetrahydropyrimidine-4-carboxamide] | ≤ 10 | – |
| Cc1c(-c2ccc([C@H]3CC[C@@H](NC(=O)c4[nH]c(=O)[nH]c(=O)c4N)C3)cc2)cnn1-c1ccccc1 [Example 165, 5-amino-N-((1R,3S)-3-(4-(5-methyl-1-phenyl-1H-pyrazol-4-yl)phenyl)cyclopentyl)-2,6-dioxo-1,2,3,6-tetrahydropyrimidine-4-carboxamide] | ≤ 10 | – |
| Nc1c(C(=O)NC2CCOc3ccccc32)[nH]c(=O)[nH]c1=O (centres unmarked) [Example 32, 5-amino-N-(chroman-4-yl)-2,6-dioxo-1,2,3,6-tetrahydropyrimidine-4-carboxamide] | ≤ 10 | 3.74 |
| Nc1c(C(=O)NC2CCCC(c3ccccc3)C2)[nH]c(=O)[nH]c1=O (centres unmarked) [Example 101, 5-amino-2,6-dioxo-N-(3-phenylcyclohexyl)-1,2,3,6-tetrahydropyrimidine-4-carboxamide] | ≤ 10 | – |
| Nc1c(C(=O)NC2CC=C(c3ccc(F)c(F)c3)CC2)[nH]c(=O)[nH]c1=O (centres unmarked) [Example 202, 5-Amino-N-(4-(3,4-difluorophenyl)cyclohex-3-enyl)-2,6-dioxo-1,2,3,6-tetrahydropyrimidine-4-carboxamide] | ≤ 10 | 1.91 |
| Nc1c(C(=O)N[C@H]2CCCc3c2cccc3C(F)(F)F)[nH]c(=O)[nH]c1=O [Example 50, (S)-5-amino-2,6-dioxo-N-(5-(trifluoromethyl)-1,2,3,4-tetrahydronaphthalen-1-yl)-1,2,3,6-tetrahydropyrimidine-4-carboxamide] | ≤ 10 | – |
| O=C(N[C@@H]1CC[C@H](c2ccccc2)c2ccccc21)c1[nH]c(=O)[nH]c(=O)c1O [Example 250, 5-hydroxy-2,6-dioxo-N-((1R,4R)-4-phenyl-1,2,3,4-tetrahydronaphthalen-1-yl)-1,2,3,6-tetrahydropyrimidine-4-carboxamide] | ≤ 10 | – |
| O=C(N[C@H]1CC[C@@H](c2ccccc2)CC1)c1[nH]c(=O)n(CCC(F)(F)F)c(=O)c1O [Example 252, 5-hydroxy-2,6-dioxo-N-((1s,4s)-4-phenylcyclohexyl)-1-(3,3,3-trifluoropropyl)-1,2,3,6-tetrahydropyrimidine-4-carboxamide] | ≤ 10 | – |
| Nc1c(C(=O)N[C@H]2CCCc3cc(OCc4ccccc4)ccc32)[nH]c(=O)[nH]c1=O [Example 93, (S)-5-amino-N-(6-(benzyloxy)-1,2,3,4-tetrahydronaphthalen-1-yl)-2,6-dioxo-1,2,3,6-tetrahydropyrimidine-4-carboxamide] | ≤ 10 | – |
| COc1ccc2c(c1)C(NC(=O)c1[nH]c(=O)[nH]c(=O)c1N)CCC2 (centres unmarked) [Example 39, 5-amino-N-(7-methoxy-1,2,3,4-tetrahydronaphthalen-1-yl)-2,6-dioxo-1,2,3,6-tetrahydropyrimidine-4-carboxamide] | ≤ 10 | – |
| COc1ccc2c(c1)CCCC2NC(=O)c1[nH]c(=O)[nH]c(=O)c1N (single isomer, unassigned; enantiomer a) [Example 194, 5-amino-N-(6-methoxy-1,2,3,4-tetrahydronaphthalen-1-yl)-2,6-dioxo-1,2,3,6-tetrahydropyrimidine-4-carboxamide (Enantiomer A)] | ≤ 10 | – |
| Nc1c(C(=O)N[C@H]2CCCc3c(OCc4ccccc4F)cccc32)[nH]c(=O)[nH]c1=O [Example 97, (S)-5-amino-N-(5-(2-fluorobenzyloxy)-1,2,3,4-tetrahydronaphthalen-1-yl)-2,6-dioxo-1,2,3,6-tetrahydropyrimidine-4-carboxamide] | ≤ 10 | – |
| O=C(N[C@H]1CC[C@@H](NC(=O)c2[nH]c(=O)[nH]c(=O)c2O)CC1)OCc1ccccc1 [Example 281, benzyl cis-4-(5-hydroxy-2,6-dioxo-1,2,3,6-tetrahydropyrimidine-4-carboxamido)cyclohexylcarbamate] | ≤ 10 | 0.875 |
